Experimental data as given in patent publication US11993573B2, “Chromane-substituted, tetrahydroquinoline-substituted and thiochromane-substituted heteroarotinoids as anti-cancer agents” (THE BOARD OF REGENTS FOR OKLAHOMA STATE UNIVERSITY, priority 2018, dated 2024).
Like-named read-outs stand apart in the source and are kept apart here.

System: human ovarian cancer cell line A2780
Test: Growth inhibition assay (CellTiter 96 Non-Rad Cell Proliferation Assay)
Assay type: cell-based
Details: for efficacy compared with SHetA2 / IC50 compared with SHetA2: comparison in words; for IC50 compared with SHetA2: 'exceeded' = lower IC50 in Table 1
Method: To illustrate the general activity of the compounds inhibiting growth of human […] ovarian cancer cells, selected compounds were synthesized and evaluated. The compounds were dissolved in DMSO at a concentration of 0.01 M. The human ovarian cancer cell line A2780 was plated in 96-well tissue culture dishes at a concentration of 3000 cells per well in RPMI medium supplemented with 10% fetal bovine serum and a mixture of antibiotics and antimycotics. The next day, the cultures were treated in triplicate with compound concentrations ranging from 2 μM to 8 μM increments. For compound 12, additional experiments were performed with concentrations of 10 μM and a series of two-fold dilutions to 156 nM. Control cultures were treated with DMSO solvent only. After 72 h of incubation, the […] 96® Non-Rad Cell Proliferation Assay (Promega) was used to quantify the remaining metabolically living cells. After subtracting blank values, the optical density (OD) readouts of the assay for the treated cultures were normalized with the average OD of the control cultures. For each compound, the experiment was repeated at least once, resulting in a minimum of 6 dose-response curves. For SHetA2, 24 response curves were available for statistical fitting parameters. A custom program was written in GNU Octave, a free software compatible with Matlab, to fit the dose-response curves with a four-parameter sigmoid function, extracting the IC50 and efficacy (the maximal % growth inhibition) parameters.
To illustrate the useful biological activity of these chroman-substituted and tetrahydroquinoline-substituted heteroarotinoids, the compounds were screened against human […] ovarian cancer cells.

[1] = Homo sapiens, A2780, Table 3, 14 series (thiochroman), A2780
[2] = Homo sapiens, A2780, Table 3, 14 series, A2780, read-out: % Efficacy
[3] = Homo sapiens, A2780, 72 h, Table 1, chroman-containing series
[4] = Homo sapiens, A2780, 72 h, Table 1, maximal % growth inhibition, A2780, 72 h, read-out: Efficacy
[5] = Table 2, tetrahydroquinoline-containing members, A2780, 72 h
[6] = Table 2, maximal % growth inhibition, A2780, 72 h

| IC50 [1] | SMILES | Emax [2] | efficacy compared with SHetA2 (A2780) | also measured |
| --- | --- | --- | --- | --- |
| 2.98 ± 0.44 µM | CC1(C)CC(C)(C)c2cc(NC(=S)NCc3ccc(Cl)cc3)ccc2S1 [Compound 14l, 1-(4-Chlorobenzyl)-3-(2,2,4,4-tetramethylthiochroman-6-yl)thiourea] | 89.4 ± 2.8% | exceeded that of SHetA2 in efficacy |  |
|  | CCC1(CC)CC(C)(C)c2cc(NC(=S)Nc3ccc([N+](=O)[O-])cc3)ccc2O1 [Compound 6a, 1-(2,2-Diethyl-4,4-dimethylchroman-6-yl)-3-(4-nitrophenyl)thiourea] |  | exceeded the efficacy of SHetA2 | IC50 [3]: 2.9 µM; Emax [4]: 93.9%; IC50 compared with SHetA2 (A2780): exceeded |
| 3.51 ± 0.07 µM | CC1(C)CC(C)(C)c2cc(NC(=S)Nc3ccc(OC(F)(F)F)cc3)ccc2S1 [Compound 14f, 1-(2,2,4,4-Tetramethylthiochroman-6-yl)-3-(4-(trifluoromethoxy)phenyl)thiourea] | 95.3 ± 0.4% | exceeded that of SHetA2 in efficacy |  |
| 3.15 ± 0.19 µM | CC1(C)CC(C)(C)c2cc(NC(=S)NNC(=O)c3ccc([N+](=O)[O-])cc3)ccc2S1 [Compound 14s, 2-(4-Nitrobenzoyl)-N-(2,2,4,4-tetramethylthiochroman-6-yl)hydrazine-1-carbothioamide] | 43.3 ± 2.9% |  |  |
| 7.03 ± 0.31 µM | CC1(C)CC(C)(C)c2cc(NC(=S)NNc3ccccc3)ccc2S1 [Compound 14q, 2-Phenyl-N-(2,2,4,4-tetramethylthiochroman-6-yl)hydrazine-1-carbothioamide] | 63.6 ± 3.7% |  |  |
| 4.01 ± 0.19 µM | CC1(C)CCSc2ccc(NC(=S)Nc3ccc([N+](=O)[O-])cc3)cc21 [Compound 14v, 1-(4,4-dimethyl-6-yl)-3-(4-nitrophenyl)thiourea] | 93.5 ± 1.7% |  |  |
|  | CCC1(CC)CC(C)(C)Oc2ccc(NC(=S)Nc3ccc([N+](=O)[O-])cc3)cc21 [Compound 7a, 1-(4,4-Diethyl-2,2-dimethylchroman-6-yl)-3-(4-nitrophenyl)thiourea] |  | exceeded the efficacy of SHetA2 | IC50 [3]: 3.69 µM; Emax [4]: 95.7% |
| 3.19 ± 0.47 µM | CC1(C)CC(C)(C)c2cc(NC(=S)NCCc3ccccc3)ccc2S1 [Compound 14k, 1-Phenethyl-3-(2,2,4,4-tetramethylthiochroman-6-yl)thiourea] | 88.2 ± 0.3% | exceeded that of SHetA2 in efficacy |  |
| 4 ± 0.12 µM | CC1(C)CC(C)(C)c2cc(NC(=S)NNC(=O)c3cc(C(F)(F)F)cc(C(F)(F)F)c3)ccc2S1 [Compound 14u, 2-(3,5-Bis(trifluoromethyl)benzoyl)-N-(2,2,4,4-tetramethylthiochroman-6-yl)hydrazine-1-carbothioamide] | 61.4 ± 2.9% |  |  |
| 3.26 ± 0.43 µM | COc1ccc(CNC(=S)Nc2ccc3c(c2)C(C)(C)CC(C)(C)S3)cc1 [Compound 14o, 1-(4-Methoxybenzyl)-3-(2,2,4,4-tetramethylthiochroman-6-yl)thiourea] | 89.6 ± 0.9% | exceeded that of SHetA2 in efficacy |  |
|  | CN1c2ccc(NC(=S)Nc3ccc([N+](=O)[O-])cc3)cc2C(C)(C)C(O)C1(C)C (stereo not drawn) [Compound 13b] |  |  | IC50 [5]: 10 µM; Efficacy [6]: 25 (±4) % |
|  | CN1c2ccc(NC(=S)Nc3ccc(C(F)(F)F)cc3)cc2C(C)(C)C(=O)C1(C)C [Compound 11d] |  |  | IC50 [5]: 3.9 µM; Efficacy [6]: 90.8 (±2.0) % |
|  | CC1(C)CC[N+](C)(C)c2ccc(NC(=O)Nc3ccc([N+](=O)[O-])cc3)cc21 [Compound 10, 1,1,4,4-Tetramethyl-6-(3-(4-nitrophenyl)ureido)-1,2,3,4-tetrahydroquinolin-1-ium Iodide] |  |  | IC50 (Homo sapiens, A2780, 72 h, Table 2, tetrahydroquinoline-containing members): 6.6 µM; Emax (Homo sapiens, A2780, 72 h, Table 2, maximal % growth inhibition, A2780, 72 h, read-out: Efficacy): 22% |
| 3.17 ± 0.25 µM | CC1(C)CC(C)(C)c2cc(NC(=S)Nc3ccc(Cl)cc3)ccc2S1 [Compound 14d, 1-(4-Chlorophenyl)-3-(2,2,4,4-tetramethylthiochroman-6-yl)thiourea] | 91.9 ± 0.5% | exceeded that of SHetA2 in efficacy |  |
|  | CCC1(CC)CC(C)(C)Oc2ccc(NC(=O)Nc3ccc([N+](=O)[O-])cc3)cc21 [Compound 7c, 1-(4,4-Diethyl-2,2-dimethylchroman-6-yl)-3-(4-nitrophenyl)urea] |  | exceeded the efficacy of SHetA2 | IC50 [3]: 2.05 µM; Emax [4]: 93.6%; IC50 compared with SHetA2 (A2780): exceeded |
|  | CC1(C)CC(C)(C)c2cc(NC(=S)Nc3ccc([N+](=O)[O-])cc3)ccc2O1 [Compound 2a, 1-(4-Nitrophenyl)-3-(2,2,4,4-tetramethylchroman-6-yl)thiourea] |  | exceeded the efficacy of SHetA2 | IC50 [3]: 6.97 µM; Emax [4]: 87% |
| 0.82 ± 0.21 µM | CC1(C)CC(C)(C)c2cc(NC(=S)NNC(=O)c3ccccc3)ccc2S1 [Compound 14r, 2-Benzoyl-N-(2,2,4,4-tetramethylthiochroman-6-yl)hydrazine-1-carbothioamide] | 67.9 ± 2.6% |  |  |
| 1.86 ± 0.09 µM | CC1(C)CC(C)(C)c2cc(NC(=O)Nc3ccc(OC(F)(F)F)cc3)ccc2S1 [Compound 14b, 1-(2,2,4,4-Tetramethylthiochroman-6-yl)-3-(4-(trifluoromethoxy)phenyl)urea] | 95.6 ± 0.4% | exceeded that of SHetA2 in efficacy |  |
|  | CC1(C)CCOc2ccc(NC(=O)Nc3ccc([N+](=O)[O-])cc3)cc21 [Compound 5a, 1-(4-Nitrophenyl)-3-(4,4-dimethylchroman-6-yl)urea] |  |  | IC50 [3]: 6.7 µM; Emax [4]: 74% |
| 4.7 ± 0.11 µM | CC1(C)CC(C)(C)c2cc(NC(=S)NCc3ccc([N+](=O)[O-])cc3)ccc2S1 [Compound 14m, 1-(4-Nitrobenzyl)-3-(2,2,4,4-tetramethylthiochroman-6-yl)thiourea] | 94.5 ± 0.6% | exceeded that of SHetA2 in efficacy |  |
| 3.53 ± 0.12 µM | CC1(C)CC(C)(C)c2cc(NC(=S)Nc3ccc(C(N)=O)cc3)ccc2S1 [Compound 14g, 4-(3-(2,2,4,4-Tetramethylthiochroman-6-yl)thioureido)benzamide] | 64.2 ± 1.8% |  |  |
| 3.93 ± 0.03 µM | CC1(C)CC(C)(C)c2cc(NC(=O)Nc3ccc(C#N)cc3)ccc2S1 [Compound 14c, 1-(4-Cyanophenyl)-3-(2,2,4,4-tetramethylthiochroman-6-yl)urea] | 93.3 ± 0.1% | exceeded that of SHetA2 in efficacy |  |
| 3.04 ± 0.52 µM | COc1cccc(NC(=S)Nc2ccc3c(c2)C(C)(C)CC(C)(C)S3)c1 [Compound 14i, 1-(3-Methoxyphenyl)-3-(2,2,4,4-tetramethylthiochroman-6-yl)thiourea] | 38.8 ± 0.04% |  |  |
| 3.79 ± 0.05 µM | CC1(C)CC(C)(C)c2cc(NC(=O)Nc3ccc(C(F)(F)F)cc3)ccc2S1 [Compound 14a, 1-(2,2,4,4-Tetramethylthiochroman-6-yl)-3-(4-(trifluoromethyl)phenyl)urea] | 93.3 ± 0.1% | exceeded that of SHetA2 in efficacy |  |
|  | CCC1(CC)CC(CC)(CC)c2cc(NC(=S)Nc3ccc([N+](=O)[O-])cc3)ccc2O1 [Compound 8a, 1-(4-Nitrophenyl)-3-(2,2,4,4-tetraethylchroman-6-yl)thiourea] |  | exceeded the efficacy of SHetA2 | IC50 [3]: 4.6 µM; Emax [4]: 94% |
| 3.23 ± 0.49 µM | CC1(C)CC(C)(C)c2cc(NC(=S)NCc3ccc(O)cc3)ccc2S1 [Compound 14p, 1-(4-Hydroxybenzyl)-3-(2,2,4,4-tetramethylthiochroman-6-yl)thiourea] | 56.8 ± 3.3% |  |  |
|  | CC1(C)CCOc2ccc(NC(=S)Nc3ccc([N+](=O)[O-])cc3)cc21 [Compound 4a, 1-(4-Nitrophenyl)-3-(4,4-dimethylchroman-6-yl)thiourea] |  |  | IC50 [3]: 6.4 µM; Emax [4]: 19% |
| 4.82 ± 0.41 µM | CC1(C)CC(C)(C)c2cc(NC(=S)NCc3ccc(C(F)(F)F)cc3)ccc2S1 [Compound 14n, 1-(2,2,4,4-Tetramethylthiochroman-6-yl)-3-(4-(trifluoromethyl)benzyl)thiourea] | 95.3 ± 0.3% | exceeded that of SHetA2 in efficacy |  |
| 2.78 ± 0.47 µM | COc1ccc(NC(=S)Nc2ccc3c(c2)C(C)(C)CC(C)(C)S3)cc1 [Compound 14h, 1-(4-Methoxyphenyl)-3-(2,2,4,4-tetramethylthiochroman-6-yl)thiourea] | 59.8 ± 1.2% |  |  |
| 2.86 ± 0.29 µM | CC1(C)CC(C)(C)c2cc(NC(=S)Nc3ccc(C(F)(F)F)cc3)ccc2S1 [Compound 14e, 1-(2,2,4,4-Tetramethylthiochroman-6-yl)-3-(4-(trifluoromethyl)phenyl)thiourea] | 95.9 ± 0.6% | exceeded that of SHetA2 in efficacy |  |
